Measured values published in paper PMC12621202, “RTx-303, an Orally Bioavailable Polθ Polymerase Inhibitor That Potentiates PARP Inhibitors in BRCA Mutant Tumors” (Journal of Medicinal Chemistry, 2025).
Several values for one entry are separate records, joined by “and”; a condition that tells them apart may be missing. Identical values can stand only once. Like-named read-outs stand apart in the source and are kept apart here.

How the values were obtained:
[1] = Hepatocyte stability; assay type: in vitro ADME; settings: cryopreserved hepatocytes
Protocol: Hepatocyte stability assays. Cryopreserved mouse hepatocytes (24 donors, male CD1 mice; Xenotech product M1000.H15+) or human hepatocytes (100 donors; mixed gender; Xenotech product HCP100.H15) were rapidly thawed, diluted with Optithaw (Xenotech product K8500) and centrifuged 5 min at 100 × g. The resuspended cells were stained with 0.016% Trypan Blue and counted. Cell viability was >80%. 0.25 mL of a 1 × 10^6 viable cells/ml cell suspension was added to 16 mm diameter wells of an uncoated polystyrene plate. The prewarmed plate was placed in a 37 °C incubator with 5% CO2 atm with 100 oscillations/min shaking. After 5 min, 0.25 mL of 2 μM test compound in prewarmed HBSS was added per well and mixed to start the reactions with duplicate reactions per compound. Verapamil as the positive control and cell-free reactions were negative controls. At each time point (0, 2, 5, 10, 30, 60, and 120 min), 50 μL aliquots were transferred to a 96-well stop plate containing 150 μL/well of acetonitrile, 0.1% formic acid and 0.1 μM propafenone. The plate was centrifuged for 10 min at 2300 × g. 150 μL of the supernatant was transferred to a mass spect sample plate. Samples were analyzed by UPLC/MS as described. Results were expressed as T1/2 (min) and in vitro Clint (μL/min/10^6 cells). CLint (μL/min/10^6 cells) estimates were determined using a modified method of McGinnity et al.

[2] = Pharmacokinetics in CD-1 mice; assay type: in vivo; settings: for bioavailability / Cmax / Tmax / AUC(0-t) / half-life: male, mouse, plasma; for AUC(0-t): read-out: AUClast (PO); for half-life: read-out: T1/2 (PO) (converted)
Protocol: For the pharmacokinetics study, CD-1 male mice (6–8 weeks) were dosed by IV or PO at the indicated concentrations of the indicated compounds dissolved in 5% DMSO, 5% ethanol, 20% TPGS, 30% PEG400, 40% water. Plasma samples were collected at the indicated time points and the indicated compound levels were determined by using standard protocols with a calibration curve and LC/MS. The pharmacokinetic studies was carried out by Pharmaron.

[3] = Solubility (PBS, 2% DMSO); assay type: physicochemical; settings: PBS with 2% DMSO, aqueous buffer, kinetic from dmso stock
Text: Solubility T1/2 simulated simulated
(PBS, 2% T1/2 mouse intestinal gastric
CF R1 OHOH DMSO) PBS plasma fluid fluid
F3C N N >200 µMN >3 hr >3 hr >3 hr > 3 hr
NN >200 HOµMN >3 hr >3 hr >3 hr > 3 hr
Supplementary Fig. 2 Solubility and stability of RTx-284 and RTx-283.

[4] = Stability in PBS, simulated gastric fluid and simulated intestinal fluid; assay type: in vitro ADME; settings: for stability in simulated intestinal and gastric fluids, plasma and PBS buffer: statement in words covering all four matrices
Protocol: Stability in PBS, SGF (simulated gastric fluid) and SIF (simulated intestinal fluid) assays. The stability of test compounds was determined in Dulbecco’s PBS (control solution; pH = 7.4; 136.9 mM NaCl; 2.68 mM KCl; 8.1 mM Na2HPO4; 1.47 mM KH2PO4; 0.9 mM CaCl2 and MgCl2, US Pharmacopeia, defined (US Pharmacopoeia 33–28NF; 2010) Simulated Gastric Fluid (SGF; 0.2% NaCl, 84 mM HCl, pH 1.2 with 3.2 mg/mL pepsin from porcine gastric mucosa), or US Pharmacopoeia-defined Simulated Intestinal Fluid (SIF; 50 mM potassium phosphate, pH 6.8; with 10 mg/mL pancreatin from porcine pancreas). Reactions were conducted in 96-well deep-well (1 mL) polypropylene plates in duplicate. 540 μL of prewarmed 1.11× PBS, SGF or SIF was added to wells of the prewarmed plate in the Labnet Vortemp incubator at 37 °C. Reactions were initiated by adding 60 μL of a 50 μM test compound in water (final concentration of 5 μM) to test wells. Samples were mixed and incubated with gentle shaking. At 0, 30, 90, 210 min, 75 μL aliquots were transferred to a stop plate (96-well plate with 300 μL of ACN:water 1:1 with 0.05 μM propafenone) on ice. After all time points, the stop plate was centrifuged 10 min at 2270 × g in a Beckman Coulter Allegra 6R centrifuge and 170 μL of the supernatants were transferred to a Waters Acquity UPLC 700 μL 96-well sample plate and sealed with a cap mat. After centrifugation (10 min; 4000 × g), supernatants were analyzed by LC/MS as described. Standard curves (0–1000 nM) were generated in PBS and plasma. Data were fit to a one-phase decay equation using GraphPad Prism 5.04 to generate T1/2 values.

[5] = Liver microsome stability; assay type: in vitro ADME
Protocol: Liver microsome membranes stability assay. Assays were conducted in 96-well (1 mL) polypropylene plates. In duplicate, test compounds (1 μM) were incubated in 0.5 mL of 100 mM potassium phosphate buffer (pH 7.4) with 0.5 mg/mL pooled liver microsomes from the test species (Gibco; mouse, CD1, male, MSMCPL; rat, Sprague-Dawley, male, RTMCPL; dog, Beagle, male, DGMCPL; human, mixed gender, HMMCPL), 2 mM tetrasodium NADPH and 3 mM MgCl2 for 60 min in a Labnet Vortemp incubator at 37 °C with gentle shaking. At five time points, […] of reaction mixtures were transferred to a 96-shallow-well stop plate on ice containing […] acetonitrile with 0.05 mM propafenone (internal standard). […] Verapamil was the positive reference compound (typical T1/2 = 3 min). Standard curves for test compounds were generated using 5 concentrations in duplicate. Stop plates were centrifuged at 2270 × g for 10 min and […] of the supernatants were transferred to a Waters Acquity UPLC […] 96-well sample plate, sealed with a cap mat and analyzed by UPLC/MS as described. GraphPad Prism v 5.04 was used for nonlinear fitting of time course data to generate T1/2 (min) and in vitro Clint (μL/min/mg) values.

[6] = mouse (CD1, male) hepatocytes, read-out: T1/2 mouse hepatocytes
[7] = Dulbecco's PBS, pH 7.4, read-out: T1/2 PBS
[8] = simulated gastric fluid (SGF) with pepsin, pH 1.2, read-out: T1/2 simulated gastric fluid
[9] = simulated intestinal fluid (SIF) with pancreatin, pH 6.8, read-out: T1/2 simulated intestinal fluid
[10] = both sexes, pH 7.4, human liver microsomes, read-out: T1/2 human liver microsomes
[11] = male, Beagle, pH 7.4, dog liver microsomes, read-out: T1/2 dog liver microsomes
[12] = male, CD1, pH 7.4, mouse liver microsomes, read-out: T1/2 mouse liver microsomes
[13] = male, Sprague-Dawley, pH 7.4, rat liver microsomes, read-out: T1/2 rat liver microsomes
[14] = both sexes, human hepatocytes, mixed gender, read-out: Human* (T1/2 min)
[15] = both sexes, pH 7.4, human liver microsomes, read-out: Clint (uL/min/ mg) human
[16] = male, CD1, pH 7.4, mouse liver microsomes, read-out: Clint (uL/min /mg) mouse

Structure (SMILES)	half-life at 1 μM [1, 6] [min]	bioavailability ([2]; 5 mg/kg IV, 15 mg/kg PO (n=3))	bioavailability ([2]; 15 mg/kg IV, 50 mg/kg PO (n=3))	Cmax ([2]; 15 mg/kg PO (n=3)) [ng/mL]	Tmax ([2]; 15 mg/kg PO (n=3)) [min]	AUC(0-t) ([2]; 15 mg/kg PO (n=3)) [ng·h/mL]	half-life ([2]; 15 mg/kg PO (n=3)) [min]	Cmax ([2]; 50 mg/kg PO (n=3)) [ng/mL]	Tmax ([2]; 50 mg/kg PO (n=3)) [min]	AUC(0-t) ([2]; 50 mg/kg PO (n=3)) [ng·h/mL]	half-life ([2]; 50 mg/kg PO (n=3)) [min]	solubility [3] [µM]	half-life at 5 μM [4, 7] [min]	half-life at 5 μM [4, 8] [min]	half-life at 5 μM [4, 9] [min]	half-life at 1 μM [5, 10] [min]	half-life at 1 μM [5, 11] [min]	half-life at 1 μM [5, 12] [min]	half-life at 1 μM [5, 13] [min]	half-life at 1 μM [1, 14] [min]	other results
[2H]C([2H])([2H])N(C(=O)Oc1c(N2CCN(CC(O)CN(C)C)C2=O)cc(C(F)(F)F)cc1C(F)(F)F)c1ccc(F)cc1 (stereo not drawn) [RTx-284, 2-{3-[3-(Dimethylamino)-2-hydroxypropyl]-2-oxoimidazolidin-1-yl}-4,6-bis(trifluoromethyl)phenyl N-(4-fluorophenyl)-N-(methyl-d3)-carbamate]	19.2	100% and 103%	99%	659	79.8	5930	146	2750	120	30700	199	> 200	> 180	> 180	> 180	15.2	7.4	8	> 54	–	–
[2H]C([2H])([2H])N(C(=O)Oc1c(N2CCN(CC(O)CNC)C2=O)cc(C(F)(F)F)cc1C(F)(F)F)c1ccc(F)cc1 (stereo not drawn) [RTx-283, 2-(3-(2-Hydroxy-3-(methylamino)propyl)-2-oxoimidazolidin-1-yl)-4,6-bis(trifluoromethyl)phenyl (4-fluorophenyl)(methyl-d3)carbamate]	48.8	44.3%	–	453	30	2370	269	–	–	–	–	> 200	> 180	> 180	> 180	> 56	24.4	44.8	> 60	–	–
[2H]C([2H])([2H])N(C(=O)Oc1c(N2CCN(C[C@H](O)CNC)C2=O)cc(C(F)(F)F)cc1C(F)(F)F)c1ccc(F)cc1 [RTx-315]	68.7	–	–	–	–	–	–	–	–	–	–	–	–	–	–	> 60	–	36.3	–	56.2	stability in simulated intestinal and gastric fluids, plasma and PBS buffer [4]: high stability; microsomal CLint at 1 μM [5, 15]: < 23 µL/min/mg; microsomal CLint at 1 μM [5, 16]: 39.1 µL/min/mg
[2H]C([2H])([2H])N(C(=O)Oc1c(N2CCN(C[C@H](O)CN(C)C)C2=O)cc(C(F)(F)F)cc1C(F)(F)F)c1ccc(F)cc1 [RTx-303]	24.7	–	88% and 88.1%	–	–	–	–	2640	198	30200	156	> 200	–	–	–	7.3	–	7.1	–	60	Avg. free unbound exposure ([2]; parent compound, 50 mg/kg PO (n=3)): 86 nM/h; stability in simulated intestinal and gastric fluids, plasma and PBS buffer [4]: high stability; microsomal CLint at 1 μM [5, 15]: 213 µL/min/mg; microsomal CLint at 1 μM [5, 16]: 204 µL/min/mg
